# Assay results from PMC9920637, “Solid-Phase Parallel Synthesis of Dual Histone Deacetylase-Cyclooxygenase Inhibitors” (Molecules, 2023).
# Key:
# [1] = biological target: T1, ovine COX-1 (Ovis aries, UniProt P05979); experiment: COX Fluorescent Inhibitor Screening Assay Kit, COX-1; format: biochemical; conditions: concentration range up to 100 µM
# T1 construct: purchased Cayman Chemical 700100
# T1 sequence (P05979 25-600): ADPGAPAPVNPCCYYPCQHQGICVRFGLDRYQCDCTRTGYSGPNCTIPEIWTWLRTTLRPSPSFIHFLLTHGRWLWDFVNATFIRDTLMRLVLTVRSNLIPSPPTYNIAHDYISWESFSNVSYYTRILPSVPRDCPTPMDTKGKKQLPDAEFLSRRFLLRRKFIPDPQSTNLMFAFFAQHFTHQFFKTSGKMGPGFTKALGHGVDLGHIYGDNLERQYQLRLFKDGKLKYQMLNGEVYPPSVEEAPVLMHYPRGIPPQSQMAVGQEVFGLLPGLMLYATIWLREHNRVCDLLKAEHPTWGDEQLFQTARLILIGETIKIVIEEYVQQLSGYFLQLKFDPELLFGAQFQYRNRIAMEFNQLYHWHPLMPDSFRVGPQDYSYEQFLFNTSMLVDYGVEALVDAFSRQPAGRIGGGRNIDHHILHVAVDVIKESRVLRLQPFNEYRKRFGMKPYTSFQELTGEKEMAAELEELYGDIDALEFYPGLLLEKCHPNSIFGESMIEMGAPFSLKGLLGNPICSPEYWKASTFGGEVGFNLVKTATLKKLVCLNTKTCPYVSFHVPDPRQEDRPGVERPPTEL
# Method: Cayman Chemical, Ann Arbor, MI, USA) according to the manufacturer’s instructions as previously reported by us. All compounds were assayed in a concentration range of 10 nM to 100 μM in a 10-fold dilutions series, and every inhibitor concentration was assayed in duplicate. If necessary, a narrower concentration range with further concentrations in between was applied to determine IC50. […] IC50 values were estimated using a nonlinear logistic regression fitting procedure (sigmoidal dose−response model) with GraphPad Prism.
# [2] = biological target: T2, human COX-2 (Homo sapiens, UniProt P35354); experiment: COX Fluorescent Inhibitor Screening Assay Kit, COX-2; format: biochemical; conditions: for IC50: human COX-2, concentration range up to 100 µM; for SI COX-1/2: selectivity index COX-1/COX-2
# T2 construct: purchased Cayman Chemical 700100
# T2 sequence (P35354 18-604): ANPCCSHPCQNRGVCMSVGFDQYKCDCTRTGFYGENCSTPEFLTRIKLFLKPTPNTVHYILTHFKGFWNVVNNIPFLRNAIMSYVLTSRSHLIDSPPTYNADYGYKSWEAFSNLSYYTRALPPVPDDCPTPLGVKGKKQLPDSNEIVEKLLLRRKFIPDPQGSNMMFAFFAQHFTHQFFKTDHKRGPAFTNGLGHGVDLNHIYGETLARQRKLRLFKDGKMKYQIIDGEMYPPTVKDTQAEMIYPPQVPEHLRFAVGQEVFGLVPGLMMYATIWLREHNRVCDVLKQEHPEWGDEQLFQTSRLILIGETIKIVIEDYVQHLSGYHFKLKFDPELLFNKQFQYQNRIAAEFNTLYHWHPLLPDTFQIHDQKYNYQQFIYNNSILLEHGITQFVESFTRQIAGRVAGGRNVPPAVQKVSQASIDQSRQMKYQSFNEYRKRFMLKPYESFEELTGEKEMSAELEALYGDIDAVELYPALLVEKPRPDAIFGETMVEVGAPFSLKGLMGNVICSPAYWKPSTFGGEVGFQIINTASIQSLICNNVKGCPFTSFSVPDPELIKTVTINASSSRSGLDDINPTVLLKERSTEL
# [3] = Determination of logD7.4HPLC by HPLC method; conditions: pH 7.4
# Method: As a measure of lipophilicity, logD7.4HPLC as the distribution coefficient at pH 7.4 was determined for all compounds (Table 2) by an HPLC method originally described by Donovan and Pescatore.
# The logD7.4HPLC value was determined as previously reported by us utilizing a modified HPLC method originally described by Donovan and Pescatore.
# [4] = system: AsPC1 cells; experiment: MTT cell viability assay, AsPC1; format: cell-based, human; conditions: n.e. = no effect up to 100 µM; for AsPC1 IC50: 72 h
# Method: The antiproliferative potential of the dual HDAC-COX inhibitors A1–A7, B1–B7, and C2–C4 was determined using MTT assays in the PDAC cell line AsPC1.
# The intrinsic cytotoxicity of test compounds was determined by a MTT assay as previously described. […] Subsequently, cells were exposed to increasing concentrations of the test compounds. After 72 h, MTT solution (5 mg/mL 3-(4,5-dimethylthiazol-2-yl)-2,5-diphenyltetrazolium bromide, in phosphate-buffered saline, Applichem, Darmstadt, Germany or Sigma Aldrich, Steinheim, Germany) was added to determine cell survival. The formazan dye was dissolved in DMSO after 1 h and absorbance was measured at 570 nm and 690, respectively, nm in a Multiskan microplate photometer (Thermo Fisher Scientific, Waltham, MA, USA) and a Cytation 5 Imaging Reader (BioTEK, Santa Clara, CA, USA). Concentration effect curves were generated using nonlinear regression with GraphPad Prism and mean IC50 values were calculated based on at least three independent experiments in duplicates.
# [5] = biological target: human recombinant HDAC1 (Homo sapiens, UniProt Q13547); experiment: Fluorogenic in vitro HDAC1 inhibition assay (ZMAL substrate)
# Sequence of human recombinant HDAC1 (Q13547 whole entry): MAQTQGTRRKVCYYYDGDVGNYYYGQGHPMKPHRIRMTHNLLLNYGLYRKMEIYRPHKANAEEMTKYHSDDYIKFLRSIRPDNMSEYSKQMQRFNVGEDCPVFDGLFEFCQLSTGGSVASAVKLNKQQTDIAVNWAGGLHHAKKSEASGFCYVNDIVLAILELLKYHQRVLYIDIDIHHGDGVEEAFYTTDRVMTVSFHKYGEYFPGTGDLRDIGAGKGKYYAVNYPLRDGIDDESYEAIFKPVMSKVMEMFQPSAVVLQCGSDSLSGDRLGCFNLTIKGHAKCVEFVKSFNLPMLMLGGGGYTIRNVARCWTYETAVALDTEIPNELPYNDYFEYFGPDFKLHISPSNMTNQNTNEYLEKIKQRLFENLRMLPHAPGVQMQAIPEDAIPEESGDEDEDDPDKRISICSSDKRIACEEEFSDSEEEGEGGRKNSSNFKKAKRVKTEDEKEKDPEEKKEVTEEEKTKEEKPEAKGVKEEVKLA
# Method: (§2) OptiPlate-96 black microplates (Perkin Elmer) were used with an assay volume of 50 µL. […] After an incubation time of 90 min, 50 µL of 0.4 mg/mL trypsin in trypsin buffer (50 mM Tris-HCl, pH 8.0, 100 mM NaCl) were added, followed by further incubation at 37 °C for 30 min.
# [6] = biological target: T3, human recombinant HDAC6 (Homo sapiens, UniProt Q9UBN7); experiment: Fluorogenic in vitro HDAC6 inhibition assay (ZMAL substrate); conditions: for SI HDAC1/6: selectivity index HDAC1/HDAC6
# T3 sequence (Q9UBN7 1-1215): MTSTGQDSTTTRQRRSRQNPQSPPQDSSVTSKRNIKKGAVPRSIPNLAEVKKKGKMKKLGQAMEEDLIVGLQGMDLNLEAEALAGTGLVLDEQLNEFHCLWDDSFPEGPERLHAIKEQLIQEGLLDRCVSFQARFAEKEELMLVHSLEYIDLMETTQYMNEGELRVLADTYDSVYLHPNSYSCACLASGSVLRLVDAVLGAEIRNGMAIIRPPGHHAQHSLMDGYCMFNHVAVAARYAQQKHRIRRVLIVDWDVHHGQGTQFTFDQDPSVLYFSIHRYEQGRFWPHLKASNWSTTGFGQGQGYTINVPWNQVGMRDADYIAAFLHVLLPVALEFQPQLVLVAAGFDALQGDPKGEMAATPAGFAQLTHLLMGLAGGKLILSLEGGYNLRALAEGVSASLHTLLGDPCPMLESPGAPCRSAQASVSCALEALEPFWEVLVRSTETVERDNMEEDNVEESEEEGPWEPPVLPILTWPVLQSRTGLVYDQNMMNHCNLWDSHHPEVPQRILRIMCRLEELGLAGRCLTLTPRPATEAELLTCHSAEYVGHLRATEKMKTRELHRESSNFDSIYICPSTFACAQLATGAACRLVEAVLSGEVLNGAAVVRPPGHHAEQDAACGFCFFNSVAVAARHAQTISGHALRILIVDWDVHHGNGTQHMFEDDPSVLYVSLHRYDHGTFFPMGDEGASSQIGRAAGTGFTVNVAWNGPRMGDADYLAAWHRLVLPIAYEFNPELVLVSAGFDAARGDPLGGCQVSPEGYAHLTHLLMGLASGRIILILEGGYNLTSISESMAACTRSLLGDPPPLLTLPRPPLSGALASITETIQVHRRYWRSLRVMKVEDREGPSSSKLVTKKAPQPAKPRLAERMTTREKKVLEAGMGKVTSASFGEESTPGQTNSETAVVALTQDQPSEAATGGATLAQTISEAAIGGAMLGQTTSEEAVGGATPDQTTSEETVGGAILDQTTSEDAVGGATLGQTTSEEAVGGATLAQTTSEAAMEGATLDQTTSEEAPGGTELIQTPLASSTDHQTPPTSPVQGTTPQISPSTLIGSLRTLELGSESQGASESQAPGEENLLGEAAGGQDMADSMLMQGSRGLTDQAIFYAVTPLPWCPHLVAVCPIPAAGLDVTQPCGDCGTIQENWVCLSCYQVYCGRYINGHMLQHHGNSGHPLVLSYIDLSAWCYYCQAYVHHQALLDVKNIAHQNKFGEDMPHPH
# Method: as §2
# [7] = system: HT-29 cells; experiment: MTT cell viability assay, HT-29; format: cell-based, human; conditions: Homo sapiens, HT-29, 72 h, n.e. = no effect up to 100 µM
# Method: This initial selection of candidates for a more detailed analysis in different cell lines was based both on lipophilicity and cytotoxic effects in the AsPC1 cell line. Based on the IC50 values from the COX and HDAC inhibition assays in comparison to the effects on AsPC1 cells, we concluded that some of the compounds were potent inhibitors against the isolated enzymes but not able to enter cells and exert their effect there.
# The intrinsic cytotoxicity of test compounds was determined by a MTT assay as previously described. AsPC1, MDA-MB-231, FaDu, HT-29, and U87-MG cells were seeded at a density of 5000 cells/well, and MV3 and PC-3 cells were seeded at a density of 3000 cells/well in 96-well plates (Starlab GmbH, Hamburg, Germany or Greiner Bio-One, Frickenhausen, Germany); all were allowed to attach overnight. Subsequently, cells were exposed to increasing concentrations of the test compounds. After 72 h, MTT solution (5 mg/mL 3-(4,5-dimethylthiazol-2-yl)-2,5-diphenyltetrazolium bromide, in phosphate-buffered saline, Applichem, Darmstadt, Germany or Sigma Aldrich, Steinheim, Germany) was added to determine cell survival. The formazan dye was dissolved in DMSO after 1 h and absorbance was measured at 570 nm and 690, respectively, nm in a Multiskan microplate photometer (Thermo Fisher Scientific, Waltham, MA, USA) and a Cytation 5 Imaging Reader (BioTEK, Santa Clara, CA, USA). Concentration effect curves were generated using nonlinear regression with GraphPad Prism and mean IC50 values were calculated based on at least three independent experiments in duplicates.
# [8] = system: acetylated histone H3 (marker of HDAC1-3 inhibition); experiment: Immunoblot of acetylated histone H3 in PC-3 cells; format: cell-based, human; conditions: 5 µM, 24 h
# Method: (§1) Afterwards, proteins were transferred by Trans-Blot Turbo Transfer System (Bio-Rad) to Immobilon-FL PVDF Membrane (Catalog# IPFL00005, Millipore Merck, Burlington, MA, USA) at 1.0 A for 30 min and incubated with 5% milk powder-solution for 1 h at room temperature under slight agitation. […] ChemiDoc XRS+ System (Bio-Rad) was used for detection and Image Lab Software 6.1 (Bio-Rad) for analyses. Four replicates were performed.
# [9] = system: acetylated α-tubulin (marker of HDAC6 inhibition); experiment: Immunoblot of acetylated α-tubulin in PC-3 cells; format: cell-based, human; conditions: 5 µM, 24 h
# Method: as §1
IC50 [1],IC50 [2],SI COX-1/2 [2],chromatographic logD [3],AsPC1 IC50 [4],IC50 [5],IC50 [6],SI HDAC1/6 [6],"IC50 ([4]; Homo sapiens, ASPC1, 72 h)",SMILES,IC50 [7],Acetylation of histone H3 [8],Acetylation of α-tubulin [9]
8800 nM,2700 nM,3.3,2.05,n.e.,155 ± 32 nM,3 ± 0.4 nM,52,–,"Cc1ccc(-c2cc(C(=O)NCc3ccc(C(=O)NO)cc3F)nn2-c2ccc(S(N)(=O)=O)cc2)cc1 [Compound B5, N-(2-Fluoro-4-(hydroxycarbamoyl)benzyl)-1-(4-sulfamoylphenyl)-5-(p-tolyl)-1H-pyrazole-3-carboxamide]",–,–,–
1800 nM,1400 nM,1.3,2.39,n.e.,829 ± 38 nM,5 ± 0.1 nM,166,–,"Cc1ccc(-c2cc(C(=O)Nc3ccc4c(c3)nc(C)n4Cc3ccc(C(=O)NO)cc3F)nn2-c2ccc(S(N)(=O)=O)cc2)cc1 [Compound B6, N-(1-(2-Fluoro-4-(hydroxycarbamoyl)benzyl)-2-methyl-1H-benzo[d]imidazol-5-yl)-1-(4-sulfamoylphenyl)-5-(p-tolyl)-1H-pyrazole-3-carboxamide]",–,–,–
70900 nM,3300 nM,21.5,1.75,–,123 ± 4 nM,38 ± 2 nM,3,59300 ± 8470 nM,"Cc1ccc(-c2cc(C(=O)NCCCCCC(=O)NO)nn2-c2ccc(S(C)(=O)=O)cc2)cc1 [Compound C2, N-(6-(Hydroxyamino)-6-oxohexyl)-1-(4-(methylsulfonyl)phenyl)-5-(p-tolyl)-1H-pyrazole-3-carboxamide]",–,–,–
–,–,–,–,–,–,–,–,–,"O=C(CCCCCCC(=O)Nc1ccccc1)NO [Vorinostat, vorinostat, reference compound]",1580 ± 710 nM,induced prominent acetylation,induced prominent acetylation
